According to US20250121025A1, “SCALP-DERIVED PEPTIDES ALLEVIATING HAIR LOSS SYMPTOMS” (NEWTREE CO., LTD, priority 2023, published 2025):

Columns and labels:
[1] = test system: androgen receptor (AR) and its target proteins (DKK-1 and TGF-β); test: Western blot of AR and its target proteins in HaCaT cells; format: cell-based, human; conditions: 0.1, 1, 10 μM, 24 hours
Method: (§1) The expression and phosphorylation of protein markers involved in alopecia-related signal transduction pathways were evaluated after treatment with peptides (RKLW and RQLW).
(§2) DHT-AR and Wnt/beta-catenin pathway: An androgen receptor (AR) is a protein that binds to dihydrotestosterone (DHT), a representative inducer of androgenetic alopecia, and when the AR is activated by binding to DHT, Dickkopf-1 (DKK-1) and transforming growth factor beta (TGF-β) are expressed and promote alopecia. In addition, DKK-1, which is expressed by the activation of the AR, suppresses the Wnt signaling pathway involved in the development and growth of hair follicles, and TGF-β induces alopecia by suppressing the growth of hair follicle cells.
(§3) Specifically, the expressions of proteins involved in major signaling pathways related to hair growth were analyzed when HaCaT and DP cells were treated with RKLW and RQLW at 0.1, 1, and 10 μM and cultured for 24 hours.
(§4) The protein immunoblot (Western blot) results of the expression of the AR and its target proteins (DKK-1 and TGF-β) in HaCaT and DP cells are shown in FIG. 5. […] When DP cells were treated with RKLW or RQLW, the expression levels of both the AR and its target protein TGF-β was reduced.

[2] = test system: androgen receptor (AR) and its target proteins (DKK-1 and TGF-β); test: Western blot of AR and its target proteins in DP cells; format: cell-based, human; conditions: 0.1, 1, 10 μM, 24 hours
Method: as §1, §2, §3, §4

[3] = test system: cell cycle marker proteins (Cyclin D1, CDK4, Cyclin E1, and CDK2); test: Western blot of cell cycle marker proteins in DP cells; format: cell-based, human; conditions: 0.1, 1, 10 μM, 24 hours
Method: (§5) Cell cycle: maintaining the G1 phase of the cell cycle of scalp skin cells plays an important role in maintaining scalp health.
(§6) Specifically, the expressions of Cyclin D/CDK4 and Cyclin E/CDK2, which activate the G1 phase, were analyzed when HaCaT and DP cells were treated with RKLW and RQLW at 0.1, 1, and 10 µM and cultured for 24 hours, and the results are shown in FIG. 8.

[4] = test system: mitochondrial apoptosis signaling pathway proteins (Bax, Bcl-2, Caspase-3, and PARP); test: Western blot of mitochondrial apoptosis signaling proteins in HaCaT cells; format: cell-based, human; conditions: 0.1, 1, 10 μM, 24 hours
Method: (§7) Mitochondrial apoptosis: Bax is a pro-apoptotic protein that promotes apoptosis, and Bcl-2 is a pro-survival protein that suppresses apoptosis; the balance between these two proteins is important in regulating apoptosis.
(§8) Specifically, the expressions of proteins involved in mitochondrial apoptotic signaling pathways were analyzed when HaCaT and DP cells were treated with RKLW and RQLW at 0.1, 1, and 10 μM and cultured for 24 hours, and the results are shown in FIG. 7.

HaCaT cells = test: Cell viability (CCK-8) in human keratinocytes; format: cell-based
Method: (§9) In order to evaluate the efficacy of peptide treatment (RKLW and RQLW) to promote skin cell proliferation, human keratinocytes and dermal papilla (DP) cells were treated with RKLW and RQLW at 0.1, 1, and 10 μM. After being cultured for 24 and 48 hours, cells were treated with Cell Counting Kit-8 (CCK-8) to measure cell viability, and the results are shown in FIG. 3.

[5] = test system: mitochondrial apoptosis signaling pathway proteins (Bax, Bcl-2, Caspase-3, and PARP); test: Western blot of mitochondrial apoptosis signaling proteins in DP cells; format: cell-based, human; conditions: 0.1, 1, 10 μM, 24 hours
Method: as §7, §8

[6] = test system: cell cycle marker proteins (Cyclin D1, CDK4, Cyclin E1, and CDK2); test: Western blot of cell cycle marker proteins in HaCaT cells; format: cell-based, human; conditions: 0.1, 1, 10 μM, 24 hours
Method: as §5, §6

[7] = test system: Wnt signaling pathway proteins (p-GSK-3β and β-catenin); test: Western blot of Wnt signaling pathway proteins in HaCaT cells; format: cell-based, human; conditions: 0.1, 1, 10 μM, 24 hours
Method: as §3
(§10) Furthermore, the protein immunoblot (Western blot) results showing differential expressions and phosphorylation of proteins involved in Wnt signaling pathway in HaCaT and DP cells are shown in FIG. 6. […] When DP cells were treated with RKLW or RQLW, the expression of p-GSK-3β was not increased, but the expression of β-catenin was increased, meaning that in DP cells, RKLW or RQLW accumulates β-catenin through a pathway other than GSK-3β to activate Wnt signaling.

[8] = test system: dermal papilla (DP) cells; test: Cell viability (CCK-8) in dermal papilla cells; format: cell-based, human
Method: as §9

[9] = test system: Wnt signaling pathway proteins (p-GSK-3β and β-catenin); test: Western blot of Wnt signaling pathway proteins in DP cells; format: cell-based, human; conditions: 0.1, 1, 10 μM, 24 hours
Method: as §3, §10

Row | Substance | AR expression [1] | expression level of DKK-1 [1] | expression level of TGF-β [1] | expression level of AR [2] | expression level of TGF-β [2] | expression level of Cyclin D/CDK4 [3] | expression level of Cyclin E/CDK2 [3] | effect of suppressing apoptosis [4] | expression ratio of Bax/Bcl-2 [5] | expression level of Cyclin D/CDK4 [6] | expression level of Cyclin E/CDK2 [6] | expression level of p-GSK-3β [7] | expression level of β-catenin [7] | cell viability of dermal papilla cells ([8]; 1 and 10 μM, 24 hours) | expression of p-GSK-3β [9] | expression of β-catenin [9] | other results
1 | RKLW (listed as Homo sapiens) | no significant change | decreased | decreased | reduced | reduced | increased | did not affect | relatively insignificant effect | unable to regulate | increased | increased | increased | increased | significantly increased cell viability | not increased | increased | cell viability of HaCaT cells (HaCaT cells; 24 and 48 hours, CCK-8): did not show statistical significance; treatment concentration at which cell viability was significantly increased ([8]; 48 hours): ≤ 10 µM
2 | RQLW (listed as Homo sapiens) | no significant change | decreased | decreased | reduced | reduced | increased | did not affect | showed an effect of suppressing apoptosis | unable to regulate | increased | increased | increased | increased | significantly increased cell viability | not increased | increased | expression ratio of Bax/Bcl-2 [4]: tended to decrease; protein level of PARP [4]: tended to decrease; protein level of cleaved caspase-3 [4]: tended to decrease; concentration at which cell viability was significantly increased (HaCaT cells; after 24 hours): ≥ 100 µM; concentration at which cell viability was significantly increased (HaCaT cells; after 48 hours): ≥ 10 µM; cell viability of dermal papilla cells ([8]; 48 hours): no significant difference
